Measurements published in US20240309360A1, “TRANS-ACTIVATORS AND METHODS AND USE THEREOF” (THE GOVERNING COUNCIL OF THE UNIVERSITY OF TORONTO, priority 2021, published 2024).

How the values were obtained:
[1] = test system: EGFP reporter (7×TetO array, basal CMV promoter) in HEK293T reporter cell line; test: Arrayed recruitment assay, PYL1 fusions individually recruited to reporter via ABI1-dCas9 with ABA; type: cell-based, human; parameters: key to independently validated as transactivating fragment: Fragments marked with * were independently validated; conditions: for independently validated as transactivating fragment: fragment fused to PYL1, arrayed format; for activation of the EGFP reporter when individually tested: PYL1 fusion, ABA 48 hours, flow cytometry
From the text: Treatment of cells with abscisic acid (ABA) induces an interaction between ABI1 and PYL1, thereby recruiting the potential transcriptional activator to a specific genomic locus defined by the guide RNA (gRNA). As a reporter, a HEK293T cell line that contains a stably integrated construct with a 7×TetO array and a basal CMV promoter driving the expression of EGFP was used (Gao et al., 2016). A monoclonal cell line that expresses ABI1-dCas9 and a single gRNA targeting TetO was generated by lentiviral infection.
Arrayed recruitment assays. Reporter cells stably co-expressing ABI-dCas9 and TetO gRNA were seeded either on 48-well or 96-well plates (Sarstedt) to reach 50-70% confluency on the day of transfection. 150 ng of each construct to be tested was transfected with polyethylenimine (PEI) at a ratio of 0.6 μl reagent. The day after transfection, recruitment was induced by treatment with ABA (100 μM). […] Inhibitors were dissolved in DMSO to a stock concentration of 10 mM. The final concentrations used were 100 nM for flavopiridol, 300 nM for JQ1, 1 μM for A-485, 2.5 μM for CX-4945 and 3 μM for AZ191. All inhibitors were a kind gift from the Structural Genomics Consortium (SGC). 48 hours after induction, cells were dissociated and resuspended in flow buffer using a liquid handing robot (TECAN) and analyzed by LSR Fortessa (BD). Cells were gated on high EBFP2 and RFP as a measure of gRNA and transfection control, respectively. Flow cytometry data was analyzed using FlowJo (v10).

[2] = test system: EGFP reporter (7×TetO array, basal CMV promoter) in HEK293T reporter cell line; test: TAD-seq pooled activation screen of 60-aa fragments fused to PYL1; type: cell-based, human; conditions: for Hit high GFP: high GFP population (top 1%); for logFC high GFP / logFC medium GFP: log 2 fold change of counts, 100 μM ABA 48 hours; for logFC high GFP: sorted high GFP cells (top 1%) vs unsorted cells; for logFC medium GFP: sorted medium GFP cells (top 2-5%) vs unsorted cells; for Hit medium GFP: medium GFP population (top 2-5%)
From the text: A fragment library of 75 activators identified in our screen was generated, using 60 amino-acid tiles every 20 aa such that every amino acid was represented by three different fragments (FIG. 3A). The pooled fragment library was fused to PYL1 and recruited to the same GFP reporter used in the original ORFeome screen (FIG. 3A). […] The GFP positive population was sorted into two independent replicates, and fragments in each population were quantified by sequencing. However, in contrast to the ORFeome screen, both high GFP cells (top 1%) and medium GFP cells (top 2-5%) were sorted to potentially identify transactivators of different strength.
Activation domain tiling library generation. A tiling library was generated from 75 proteins identified as activators in the ORFeome screen. Oligonucleotides containing a 5′ adapter […] (SEQ ID NO: 23) and a 3′ adapter […] (SEQ ID NO: 24) to generate a 5′ adapter ([…]) (SEQ ID NO: 11) and a 3′ adapter ([…]) (SEQ ID NO: 12) were synthesized as pooled libraries (Twist Biosciences). 6×50 μl PCR reactions were set up using NEBNext Ultra II Q5 master mix (New England Biolabs) with 5 nM oligos as template. PCR conditions were optimized to find the lowest cycle with a clean visible product at the expected 300 bp length. The thermocycling condition was an initial 30 s at 98° C., then 2 cycles of 98° C. for 10 s, 63° C. for 20 s, and 72° C. for 15 s, followed by 10 more cycles of 98° C. for 10 s and 72° C. for 30 s with a final extension at 72° C. for 5 min. Primers were designed to have Gateway compatible flanking sequences. The resulting libraries were gel extracted by QIAgen gel extraction kit after loading on a 2% TAE gel for 2 hrs at 60V and subsequently cloned into pDONR221 using 20 separate BP reactions in total of 5 μl reactions. The entry plasmid pool was transformed after an overnight reaction into DHSalpha competent E. coli and incubated overnight on LB agar plates containing kanamycin ([…]). Colonies were collected and plasmid DNA purified. 20 LR reactions were then set up as described in the previous section. Each reaction was transformed into NEB 10-beta chemically competent E. coli and grown on LB agar plates containing carbenicillin ([…]) overnight at 30° C. Colonies were counted to ensure >200-fold coverage at each step of cloning, pooled and maxiprepped.
Pooled activation screens. ORFeome and transactivation tiling libraries tagged at the C-terminus with PYL1 were packaged into lentiviral particles. A clonal EGFP reporter cell line stably co-expressing ABI-dCas9 and a gRNA targeting the promoter were transduced at low multiplicity of infection (MOI) with approximately 30% cell survival after puromycin (1 μg/mL) selection. Untransduced cells under the same condition were fully eliminated. Sufficient cells were transduced to maintain >500 fold coverage of the libraries. Recruitment was induced by treating cells with 100 μM abscisic acid (ABA, Sigma) for 48 hours. In parallel, a control batch of cells were treated with equal total volume of DMSO. Cells were then washed in PBS, treated with dissociation buffer (1 mM EDTA, 10 mM KCl, 150 mM NaCl, 5 mM sodium bicarbonate, 0.1% glucose) and resuspended in flow buffer (5 mM EDTA, 25 mM HEPES pH 7, 1% BSA, PBS). High GFP population for each library, top 1% for ORFeome and two bins of top 1% and the next 4% for the TAD screen, were sorted and their genomic DNA directly extracted using QIAmp DNA Blood Mini Kit (QIAGEN).
TAD sequencing. Performed nested PCR on the purified genomic DNA using primers targeting T7 promoter and PYL1 of the backbone vector in the first step creating a ˜470 bp product. Products of the first reaction were then pooled and amplified for an additional 10 steps using primers targeting outside the Gateway sites creating a ˜300 bp product. Libraries were quantified on Qubit dsDNA Broad Range kit and paired-end sequenced on an Illumina MIseq with a custom PAGE-purified R1 sequencing primer. […]

| Substance | independently validated as transactivating fragment [1] | Hit high GFP [2] | logFC high GFP [2] | logFC medium GFP [2] | Hit medium GFP [2] | activation of the EGFP reporter when individually tested [1] |
| --- | --- | --- | --- | --- | --- | --- |
| ATF6-2: 60-aa TAD-seq fragment of ATF6 (HRLDEDWDSALFAELGYFTDTDELQLEAANETYENNFDNLDFDLDLVPWESDIWDINNQI; listed as Homo sapiens) | ATF6-2* | hit | 4.688 | 1.477 | hit | – |
| ATXN7L3-1: 60-aa TAD-seq fragment of ATXN7L3 (MKMEEMSLSGLDNSKLEAIAQEIYADLVEDSCLGFCFEVHRAVKCGYFFLDDTDPDSMKD; listed as Homo sapiens) | 1* | hit | 1.638 | 1.684 | hit | – |
| BRD8-25: 60-aa TAD-seq fragment of BRD8 (GEELDFETVGDIIAIIEDKVDDHPEVLDVAAVEAALSFCEENDDPQSLPGPWEHPIQQER; listed as Homo sapiens) | BRD8-25* | hit | 1.567 | 1.834 | hit | – |
| C3orf62-12: 60-aa TAD-seq fragment of C3orf62 (QDSPFKEEAWALLMDKSPQKATDADPGSLKQAFDDHNIVETVLDLEEDYNVMTSFKYQIE; listed as Homo sapiens) [Fragment C3orf62-12] | 12* | hit | 6.493 | −0.6067 | – | – |
| CBX2: CBX-C domain of CBX2 (SASPPSTGQNPSVSVQTSQDWKPTRSLIEHVFVTDVTANLITVTVKESPTSVGFFNLRHY; listed as Homo sapiens) | – | – | – | – | – | the most potent activator |
| CBX8: CBX-C domain of CBX8 (RPSLIARIPVARILGDPEEESWSPSLTNLEKVVVTDVTSNFLTVTIKESNTDQGFFKEKR; listed as Homo sapiens) | – | – | – | – | – | activated the reporter weakly |
| CITED1-8: 60-aa TAD-seq fragment of CITED1 (ESLSPSAGAQSPAIIDSDPVDEEVLMSLVVELGLDRANELPELWLGQNEFDFTADFPSSC; listed as Homo sapiens) | 8* | hit | 6.826 | −1.166 | – | – |
| CITED2-12: 60-aa TAD-seq fragment of CITED2 (AMLPPNVIDTDFIDEEVLMSLVIEMGLDRIKELPELWLGQNEFDFMTDFVCKQQPSRVSC; listed as Homo sapiens) | 12* | hit | 6.148 | −0.9005 | – | – |
| FAM90A1-20: 60-aa TAD-seq fragment of FAM90A1 (HPAASHDGAQPLRVLFRRLENGRWSSSLLTAPSFHSPEKPGAFLAQSPHVSEKSEGPCVR; listed as Homo sapiens) | 20* | hit | 3.017 | 1.616 | hit | – |
| HOXB2: HOX family transcription factor tested as PYL1 fusion | – | – | – | – | – | characterized as activators |
| KLF7-1: 60-aa TAD-seq fragment of KLF7 (MDVLASYSIFQELQLVHDTGYFSALPSLEETWQQTCLELERYLQTEPRRISETFGEDLDC; listed as Homo sapiens) | KLF7-1* | hit | 5.998 | 1.29 | hit | – |
| SERTAD1-10: 60-aa TAD-seq fragment of SERTAD1 (IDTSMYDNELWAPASEGLKPGPEDGPGKEEAPELDEAELDYLMDVLVGTQALERPPGPGR; listed as Homo sapiens) | – | – | 0.2349 | 0.8385 | hit | – |
| SERTAD2-11: 60-aa TAD-seq fragment of SERTAD2 (SEAGTQKLDGPQESRADDSKLMDSLPGNFEITTSTGFLTDLTLDDILFADIDTSMYDFDP; listed as Homo sapiens) | – | hit | 2.48 | 1.822 | hit | – |
| SPDYE4-4: 60-aa TAD-seq fragment of SPDYE4 (SEEELEEELELERAPEPEDTWVVETLCGLKMKLKRKRASSVLPEHHEAFNRLLGDPVVQK; listed as Homo sapiens) | – | hit | 4.316 | 1.914 | hit | – |
| SS18L2-2: 60-aa TAD-seq fragment of SS18L2 (QETIQRLLEENDQLIRCIVEYQNKGRGNECVQYQHVLHRNLIYLATIADASPTSTSKAME; listed as Homo sapiens) | – | – | 1.012 | 1.166 | hit | – |
| YAF2-6: 60-aa TAD-seq fragment of YAF2 (EKKDKVEKEKSEKETTSKKNSHKKTRPRLKNVDRSSAQHLEVTVGDLTVIITDFKEKTKS; listed as Homo sapiens) | – | hit | 4.316 | 1.771 | hit | – |
| YAF2: YAF2_RYBP domain of YAF2; same SEQ ID NO as YAF2-7 (SHKKTRPRLKNVDRSSAQHLEVTVGDLTVIITDFKEKTKSPPASSAASADQHSQSGSSSD; listed as Homo sapiens) | – | – | – | – | – | robustly activated the reporter |
| ZXDC-13: 60-aa TAD-seq fragment of ZXDC (YLESGGSARTDYRAIQLAKEKKQRGAGSNAGASQSTQRKIKEGKMSPPHFHASQNSWLCG; listed as Homo sapiens) | – | hit | 2.377 | 1.734 | hit | – |
| ZXDC-16: 60-aa TAD-seq fragment of ZXDC (SLVVPSGGRPGPAPAAGVQCGAQGVQVQLVQDDPSGEGVLPSARGPATFLPFLTVDLPVY; listed as Homo sapiens) | – | – | 0.4785 | 0.7293 | hit | – |
| p300: known transcriptional activator p300 fused to PYL1 [reference compound] | – | – | – | – | – | robust induction of GFP |
